The conditions of series [1]: pH 7.
For series [2], the target named is Glucagon Receptor (Homo sapiens, UniProt P47871). The series is described as follows: Functional assay, cAMP synthesis (luciferase reporter), glucagon receptor. Background: Reporter assays use an easily measured gene product as a stand-in for the process of interest.
Series [3] deals with GLP-1 Receptor (Homo sapiens, UniProt P43220). The series is described as follows: cell-based.

Usually EC50 stands for the concentration that produces a half-maximal response.

Like-named read-outs stand apart in the source and are kept apart here. Ends that are not written are not given here.

Glucagon Receptor, sequence (P47871 26-477): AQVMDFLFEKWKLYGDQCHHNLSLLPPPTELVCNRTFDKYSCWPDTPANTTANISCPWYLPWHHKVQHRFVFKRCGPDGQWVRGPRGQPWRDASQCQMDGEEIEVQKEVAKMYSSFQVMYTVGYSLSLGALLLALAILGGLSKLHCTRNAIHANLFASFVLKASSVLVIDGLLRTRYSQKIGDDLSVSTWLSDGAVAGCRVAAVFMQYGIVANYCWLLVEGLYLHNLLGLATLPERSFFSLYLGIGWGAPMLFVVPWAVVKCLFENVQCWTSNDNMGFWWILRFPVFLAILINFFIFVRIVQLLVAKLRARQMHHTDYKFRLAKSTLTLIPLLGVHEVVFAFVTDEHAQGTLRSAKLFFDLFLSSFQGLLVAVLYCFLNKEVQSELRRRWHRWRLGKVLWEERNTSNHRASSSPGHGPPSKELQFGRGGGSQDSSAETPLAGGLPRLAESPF
GLP-1 Receptor, sequence (P43220 24-463, species assumed): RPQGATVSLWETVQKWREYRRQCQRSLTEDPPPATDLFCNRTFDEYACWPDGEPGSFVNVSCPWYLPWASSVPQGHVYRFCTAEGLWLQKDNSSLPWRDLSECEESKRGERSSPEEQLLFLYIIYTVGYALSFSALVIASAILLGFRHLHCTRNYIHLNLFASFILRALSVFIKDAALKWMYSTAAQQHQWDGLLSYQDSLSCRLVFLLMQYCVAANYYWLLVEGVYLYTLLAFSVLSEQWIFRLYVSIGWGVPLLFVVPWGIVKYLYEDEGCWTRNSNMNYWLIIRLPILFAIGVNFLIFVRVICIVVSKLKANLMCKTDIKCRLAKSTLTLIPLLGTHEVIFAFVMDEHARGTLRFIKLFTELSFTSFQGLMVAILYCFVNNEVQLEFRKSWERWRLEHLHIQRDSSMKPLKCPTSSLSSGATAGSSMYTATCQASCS

On to “Glucagon Cys^17 Mal-PEG-5K [Glucagon, Cys17PEG5K]”, for which the “Percent Soluble” value in series [1] was 94%.
With “Glucagon Cys^24 Maleimido, PEG-3.4K-dimer [Glucagon C24 Dimer]”, in series [2] (read-out: cAMP Induction Glucagon Receptor EC50, Table 3 (pegylated analogs), HEK293 cells co-transfected with glucagon receptor and CRE-luciferase, 5 h at 37° C.), the EC50 stood at 0.1 ± 0.05 nM.
In series [2], “HSQGTFTSDYSRYLDSRRAKDFVQWLMNT [Glucagon R12 K20]” registered an EC50 of 0.84 ± 0.4 nM.
As to “HSQGTFTSDYSRYLDSRRAQDFVQWLMNK [Glucagon R12 K29]”, the EC50 came out at 0.41 ± 0.24 nM in series [3] and 0.81 ± 0.49 nM in series [2].

For the origin of these results see patent US8338368B2 (priority 2005, dated 2012).
